As usually defined, the IC50 is the concentration at which inhibition is half-maximal.

Data set [1] has as its target T1, recombinant human tryptase, beta, from lung (Homo sapiens, UniProt P20231).
T1 construct: purchased Promega or Enzo Life Sciences G5631 or BML-SE418
Kind of data set: Evaluation of inhibition of tryptase activity (Boc-Gln-Ala-Arg-AMC fluorescence). The format is biochemical. As to conditions: exemplary silyl monomers; 1 nM tryptase; read-out: IC50 range. As for the experimental part:
Stock solutions of recombinant human tryptase, beta, from lung (Promega: catalog number G5631, or Enzo Life Sciences: catalog number BML-SE418) were made at 30 μM, in solution with 50 μM heparin sulfate and 500 mM NaCl. Multimer tryptase inhibitor stock solutions were made at 50 mM in DMSO. Drug plates were made at 5× the final concentration in assay buffer (50 mM HEPES, 150 mM NaCl, 100 μM EDTA, pH 7.4, 0.02% Tween-20). A final concentration of 1 nM tryptase was used. When required, drugs were diluted in assay buffer immediately before use in 10-fold serial dilutions. […] The release of fluorescent AMC was immediately measured every 60 seconds over 30-60 minutes at an excitation wavelength of 367 nm, monitoring emission at 468 nm on a Spectramax M5 (Molecular Devices) microplate reader. The Softmax Pro (Molecular Devices) and Graphpad prism software were used to determine Vmax, and concentration-response curve IC50s, respectively. As indicated below, IC50 ranges are provided for various exemplary monomers.

The nature of data set [2]: Hydrolysis of disiloxane to silanol followed by NMR. The format is physicochemical. The note with it: expected from the effect of alkyl group size on silyl ether hydrolysis. The source says:
Without wishing to be bound by any theory, the estimated half-life for hydrolysis of the disiloxane depicted here:
[drawing 18] is 15 days based at pH5 in 90% DMSO/10% water at room temperature based upon NMR experiments. […] Thus in certain aqueous situations, the hydrolysis of the dimeric disiloxane to monomeric silanol may be essentially irreversible on the timescale relevant for the biological functions they are modulating.

T1 sequence (P20231 31-275): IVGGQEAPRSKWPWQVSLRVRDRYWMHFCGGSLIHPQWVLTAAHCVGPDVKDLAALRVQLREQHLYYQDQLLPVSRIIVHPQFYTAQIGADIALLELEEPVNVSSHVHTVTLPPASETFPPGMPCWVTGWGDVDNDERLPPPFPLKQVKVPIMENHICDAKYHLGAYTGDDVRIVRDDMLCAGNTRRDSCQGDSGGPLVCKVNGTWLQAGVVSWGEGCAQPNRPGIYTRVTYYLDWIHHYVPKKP

With `C[Si](C)(O)c1cccc(-c2cccc(C(=O)N3CCC(c4cccc(CN)c4)CC3)c2)c1` [T35 Silyl], the IC50 in data set [1] was in the range of 10 to 65 µM.
As for `C[Si](C)(O)c1ccc2cccc(C(=O)N3CCC(c4cccc(CN)c4)CC3)c2c1` [Target T11SILYL], the IC50 in data set [1] lay in the range of 0.0001 to 1 µM.
In the case of `C[Si](C)(O)c1cccc2[nH]c(C(=O)N3CCC(c4cccc(CN)c4)CC3)cc12` [Target T32Silyl], the IC50 in data set [1] is 10 to 65 µM.
On the same count and under the same terms, next, `C[Si](C)(O[Si](C)(C)c1cccc2sc(C(=O)N3CCC(c4cccc(CN)c4)CC3)cc12)c1cccc2sc(C(=O)N3CCC(c4cccc(CN)c4)CC3)cc12` [Target T46]: 0.0001 to 1 µM.
Turning to `C[Si](C)(O[Si](C)(C)c1cccc(CC(=O)N2CCC(c3cccc(CN)c3)CC2)c1)c1cccc(CC(=O)N2CCC(c3cccc(CN)c3)CC2)c1` [Target T47], in data set [1], the IC50 lay within 0.0001 to 1 µM.
As to `C[Si](C)(/C=C/c1cccc(CC(=O)N2CCC(c3cccc(CN)c3)CC2)c1)O[Si](C)(C)/C=C/c1cccc(CC(=O)N2CCC(c3cccc(CN)c3)CC2)c1` [Target T47vinyl], the IC50 in data set [1] lay within 1 to 10 µM.
Consider `C[Si](C)(O[Si](C)(C)c1ccc(CC(=O)N2CCC(c3cccc(CN)c3)CC2)cc1)c1ccc(CC(=O)N2CCC(c3cccc(CN)c3)CC2)cc1` [Target T48], for which the IC50 in data set [1] was 1 to 10 µM.
For `C[Si](C)(O[Si](C)(C)c1cc2c(C(=O)N3CCC(c4cccc(CN)c4)CC3)cccc2s1)c1cc2c(C(=O)N3CCC(c4cccc(CN)c4)CC3)cccc2s1` [Target T49], the IC50 in data set [1] lay within 0.0001 to 1 µM.
Still for that read-out and setting: next, `C[Si](C)(O)c1cccc2ccc(C(=O)N3CCC4(CC3)COc3ccc(CN)cc34)cc12` [Target T52SPIRO]: 0.0001 to 1 µM; `C[Si](C)(O)c1cccc2ccc(C(=O)N3CCC(c4cccc(CN)c4)CC3)cc12` [Target T52]: 0.0001 to 1 µM; `C[Si](C)(O)c1cccc2cc(C(=O)N3CCC(c4cc(CN)ccc4F)CC3)ccc12` [Target T120F]: 0.0001 to 1 µM.
For `C[Si](C)(O)Cc1cccc(C(=O)N2CCC(c3cccc(CN)c3)CC2)c1` [Target T122], in data set [1], the IC50 was in the range of 1 to 10 µM.
On the same count and under the same terms, then `C[Si](C)(O)c1cccc(C(=O)N2CCC3(CC2)COc2ccc(CN)cc23)c1` [Target T129SPIRO], with 0.0001 to 1 µM; and `CSc1cc(C(=O)N2CCC(c3cccc(CN)c3)CC2)cc([Si](C)(C)O)c1` [Target T129Smethyl], with 0.0001 to 1 µM; and `C[Si](C)(O)c1cccc(C(=O)N2CCC(c3cccc(CN)c3)CC2)c1` [Target T129], with 0.0001 to 1 µM.
For the molecule `C[Si](C)(O)c1ccc(C(=O)N2CCC(c3cccc(CN)c3)CC2)cc1` [Target T130], in data set [1], the IC50 lay within 0.0001 to 1 µM.
For the molecule `C[Si](C)(O)COc1ccc(C(=O)N2CCC(c3cccc(CN)c3)CC2)cc1` [Target T137, (4-(3-(aminomethyl)phenyl)piperidin-1-yl)(4-((hydroxydimethylsilyl)methoxy)-phenyl)methanone], in data set [1], the IC50 lay in the range of 0.0001 to 1 µM.
For the molecule `C[Si](C)(O)COc1cccc(C(=O)N2CCC(c3cccc(CN)c3)CC2)c1` [Target T138, (4-(3-(aminomethyl)phenyl)-piperidin-1-yl)(3-((hydroxydimethylsilyl)-methoxy)phenyl)methanone], in data set [1], the IC50 lay in the range of 0.0001 to 1 µM.
With `C[Si](C)(O)c1coc2ccc(C(=O)N3CCC(c4cccc(CN)c4)CC3)cc12` [Target T148], the IC50 in data set [1] is 0.0001 to 1 µM.
With `C[Si](C)(O)c1csc2ccc(C(=O)N3CCC(c4cccc(CN)c4)CC3)cc12` [Target T149], in data set [1], the IC50 was in the range of 1 to 10 µM.
The same measure, in the same setting: then `Cn1cc(C(=O)N2CCC(c3cccc(CN)c3)CC2)c2ccc([Si](C)(C)O)cc21` [Target T152NMethyl], with 10 to 65 µM.
Take `C[Si](C)(O)c1ccc2c(C(=O)N3CCC(c4cccc(CN)c4)CC3)c[nH]c2c1` [Target T152]: the IC50 in data set [1] lay within 10 to 65 µM.
With `CC[Si](CC)(O[Si](CC)(CC)c1ccccc1)c1ccccc1` [diphenyltetraethyldisiloxane], in data set [2], the “half-life of hydrolysis relative to the depicted disiloxane” value is “more than ten fold longer”.

For the origin of these results see US10912786B2, “Silyl monomers capable of multimerizing in an aqueous solution, and methods of using same” (Cornell University, priority 2011, dated 2021).
